Our source for the T/C values is PubChem BioAssay AID328 (DTP/NCI, 2004).

Structures are written as SMILES. Several values for one entry are separate records, joined by “and”; a condition that tells them apart may be missing. Equal values may be shown once. Toxic doses and inconclusive results are not listed.

For the experiment, the system named is BDF1 mice, P388 leukemia ip, median survival T/C. Kind of experiment: NCI In Vivo Anticancer Drug Screen. Data for tumor model P388 Leukemia (intraperitoneal) in B6D2F1 (BDF1) mice. As to conditions: endpoint: median survival time, higher = longer survival. In outline: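 T/C = treated-group survival ÷ vehicle-control survival; tumour transplanted into mice before dosing.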

The mark [1] stands for this setting: dose: 25.0 mg/kg/injection, schedule: Q01DX009 (ip), vehicle: Klucel (hydroxypropylcellulose) (HPC).

With `C[n+]1ccc(Nc2ccc(NC(=O)c3ccc(Nc4cc[n+](C)c5ccc(N)cc45)cc3N)cc2)cc1`, the T/C reads like this: (dose: 0.5 mg/kg/injection, schedule: Q01DX010 (ip), vehicle: saline) 150 % of control; (dose: 0.88 mg/kg/injection, schedule: Q04DX003 (ip), vehicle: saline with Tween-80) 123 % of control; (dose: 1.0 mg/kg/injection, schedule: Q01DX010 (ip), vehicle: saline) 160 % of control; (dose: 1.56 mg/kg/injection, schedule: Q01DX009 (ip), vehicle: Klucel (hydroxypropylcellulose) (HPC)) 194 % of control; (dose: 2.0 mg/kg/injection, schedule: Q01DX009 (ip), vehicle: saline with Tween-80) 150 % of control; (dose: 2.0 mg/kg/injection, schedule: Q01DX010 (ip), vehicle: saline) 205 % of control. Besides, the T/C is 152 % of control (dose: 3.0 mg/kg/injection, schedule: Q04DX003 (ip), vehicle: saline with Tween-80); 252 % of control and 216 % of control (dose: 3.12 mg/kg/injection, schedule: Q01DX009 (ip), vehicle: Klucel (hydroxypropylcellulose) (HPC)); 169 % of control (dose: 3.12 mg/kg/injection, schedule: Q01DX009 (ip), vehicle: saline); 154 % of control (dose: 3.6 mg/kg/injection, schedule: Q04DX003 (ip), vehicle: saline with Tween-80); 229 % of control (dose: 4.0 mg/kg/injection, schedule: Q01DX009 (ip), vehicle: saline with Tween-80); 300 % of control (dose: 4.0 mg/kg/injection, schedule: Q01DX010 (ip), vehicle: saline). Also, the T/C was 168 % of control (dose: 5.56 mg/kg/injection, schedule: Q04DX003 (ip), vehicle: saline); 159 % of control (dose: 5.6 mg/kg/injection, schedule: Q04DX003 (ip), vehicle: saline with Tween-80); 266 % of control and 267 % of control (dose: 6.25 mg/kg/injection, schedule: Q01DX009 (ip), vehicle: Klucel (hydroxypropylcellulose) (HPC)); 172 % of control (dose: 6.25 mg/kg/injection, schedule: Q01DX009 (ip), vehicle: saline); 300 % of control (dose: 6.25 mg/kg/injection, schedule: Q01DX010 (ip), vehicle: saline); 163 % of control (dose: 6.25 mg/kg/injection, schedule: Q04DX003 (ip), vehicle: saline). Further, the T/C is 250 % of control (dose: 8.0 mg/kg/injection, schedule: Q01DX009 (ip), vehicle: saline with Tween-80); 177 % of control (dose: 8.3 mg/kg/injection, schedule: Q04DX003 (ip), vehicle: saline with Tween-80); 227 % of control (dose: 8.33 mg/kg/injection, schedule: Q04DX003 (ip), vehicle: saline); 267 % of control and 199 % of control (dose: 12.5 mg/kg/injection, schedule: Q01DX009 (ip), vehicle: Klucel (hydroxypropylcellulose) (HPC)); 172 % of control (dose: 12.5 mg/kg/injection, schedule: Q01DX009 (ip), vehicle: saline); 300 % of control (dose: 12.5 mg/kg/injection, schedule: Q01DX010 (ip), vehicle: saline). The T/C was 209 % of control (dose: 12.5 mg/kg/injection, schedule: Q04DX003 (ip), vehicle: saline with Tween-80); 200 % of control and 218 % of control and 186 % of control (dose: 12.5 mg/kg/injection, schedule: Q04DX003 (ip), vehicle: saline); 250 % of control (dose: 16.0 mg/kg/injection, schedule: Q01DX009 (ip), vehicle: saline with Tween-80); 263 % of control (dose: 18.7 mg/kg/injection, schedule: Q04DX003 (ip), vehicle: saline with Tween-80); 116 % of control under setting [1]; 172 % of control (dose: 25.0 mg/kg/injection, schedule: Q01DX009 (ip), vehicle: saline). Besides, the T/C was 272 % of control and 254 % of control (dose: 25.0 mg/kg/injection, schedule: Q04DX003 (ip), vehicle: saline); 272 % of control (dose: 26.0 mg/kg/injection, schedule: Q04DX003 (ip), vehicle: saline with Tween-80); 112 % of control (dose: 32.0 mg/kg/injection, schedule: Q01DX009 (ip), vehicle: saline with Tween-80); 272 % of control (dose: 40.0 mg/kg/injection, schedule: Q04DX003 (ip), vehicle: saline with Tween-80); 106 % of control (dose: 50.0 mg/kg/injection, schedule: Q01DX009 (ip), vehicle: saline); 90 % of control (dose: 50.0 mg/kg/injection, schedule: Q01DX010 (ip), vehicle: saline). Moreover, the T/C is 310 % of control (dose: 50.0 mg/kg/injection, schedule: Q04DX003 (ip), vehicle: saline) and 272 % of control (dose: 60.0 mg/kg/injection, schedule: Q04DX003 (ip), vehicle: saline with Tween-80).

Regarding `COc1cccc2c1C(=O)c1c(O)c3c(c(O)c1C2=O)C[C@@](O)(C(=O)CO)C[C@@H]3OC1CC(NC(C)=O)C(O)C(C)O1` (stereo partly drawn), the T/C runs as follows: (dose: 25.0 mg/kg/injection, schedule: Q04DX009 (ip), vehicle: other) 119 % of control; (dose: 100.0 mg/kg/injection, schedule: Q04DX009 (ip), vehicle: other) 119 % of control; (dose: 200.0 mg/kg/injection, schedule: Q04DX009 (ip), vehicle: other) 119 % of control.

In the case of `CCCCOC(=O)c1cccc(C(=O)OCCCC)c1Sc1ccccc1`, the T/C (dose: 50.0 mg/kg/injection, schedule: Q01DX009 (ip), vehicle: other) is 105 % of control; the T/C (dose: 100.0 mg/kg/injection, schedule: Q01DX009 (ip), vehicle: other) is 100 % of control; the T/C (dose: 200.0 mg/kg/injection, schedule: Q01DX009 (ip), vehicle: other) is 107 % of control.

Consider `O=C(NCCCCN1CC1)C(=O)NCCCCN1CC1`, for which the T/C (dose: 6.25 mg/kg/injection, schedule: Q04DX003 (ip), vehicle: Klucel (hydroxypropylcellulose) (HPC)) was 188 % of control; the T/C (dose: 12.5 mg/kg/injection, schedule: Q04DX003 (ip), vehicle: Klucel (hydroxypropylcellulose) (HPC)) is 188 % of control; the T/C (dose: 25.0 mg/kg/injection, schedule: Q04DX003 (ip), vehicle: Klucel (hydroxypropylcellulose) (HPC)) was 221 % of control.

For `Clc1cc(Cl)c2c(c1)COCO2`, the T/C runs as follows: under setting [1], 104 % of control; (dose: 50.0 mg/kg/injection, schedule: Q01DX009 (ip), vehicle: Klucel (hydroxypropylcellulose) (HPC)) 100 % of control; (dose: 100.0 mg/kg/injection, schedule: Q01DX009 (ip), vehicle: Klucel (hydroxypropylcellulose) (HPC)) 109 % of control; (dose: 100.0 mg/kg/injection, schedule: Q04DX003 (ip), vehicle: Klucel (hydroxypropylcellulose) (HPC)) 90 % of control; (dose: 200.0 mg/kg/injection, schedule: Q01DX009 (ip), vehicle: Klucel (hydroxypropylcellulose) (HPC)) 90 % of control; (dose: 200.0 mg/kg/injection, schedule: Q04DX003 (ip), vehicle: Klucel (hydroxypropylcellulose) (HPC)) 100 % of control. Further, the T/C (dose: 400.0 mg/kg/injection, schedule: Q04DX003 (ip), vehicle: Klucel (hydroxypropylcellulose) (HPC)) is 100 % of control.

As to `CN(c1ccccc1)P(=O)(N1CC1)N1CC1`, the T/C (dose: 25.0 mg/kg/injection, schedule: Q04DX003 (ip), vehicle: saline with Tween-80) was 172 % of control and the T/C (dose: 37.5 mg/kg/injection, schedule: Q04DX003 (ip), vehicle: saline with Tween-80) is 250 % of control.

In the case of `Nc1nc(=S)c2ncn(C3OC(COC(=O)c4ccccc4)C(OC(=O)c4ccccc4)C3OC(=O)c3ccccc3)c2[nH]1` (stereo not drawn), the T/C was 120 % of control (dose: 13.2 mg/kg/injection, schedule: Q01DX009 (ip), vehicle: saline with Tween-80); 154 % of control (dose: 33.0 mg/kg/injection, schedule: Q01DX009 (ip), vehicle: saline with Tween-80); 90 % of control (dose: 75.0 mg/kg/injection, schedule: Q01DX009 (ip), vehicle: saline with Tween-80); 163 % of control (dose: 100.0 mg/kg/injection, schedule: Q04DX003 (ip), vehicle: saline).

`C=Cn1ccnc1C(O)(c1ccccc1)c1ccc(C(C)(C)C)cc1` (stereo not drawn): the T/C (dose: 50.0 mg/kg/injection, schedule: Q01DX009 (ip), vehicle: saline with Tween-80) is 93 % of control; the T/C (dose: 100.0 mg/kg/injection, schedule: Q01DX009 (ip), vehicle: saline with Tween-80) is 90 % of control; the T/C (dose: 200.0 mg/kg/injection, schedule: Q01DX009 (ip), vehicle: saline with Tween-80) was 93 % of control.

`C(=Nc1ccc2c(c1)Cc1ccccc1-2)c1ccc2ccccc2c1`: the T/C is 103 % of control (dose: 12.5 mg/kg/injection, schedule: Q04DX002 (ip), vehicle: saline with Tween-80); 94 % of control (dose: 25.0 mg/kg/injection, schedule: Q04DX002 (ip), vehicle: saline with Tween-80); 97 % of control (dose: 50.0 mg/kg/injection, schedule: Q04DX002 (ip), vehicle: saline with Tween-80).

Consider `COc1cccc(N)c1N`, for which the T/C runs as follows: (dose: 50.0 mg/kg/injection, schedule: Q01DX009 (ip), vehicle: suspension in saline) 124 % of control; (dose: 200.0 mg/kg/injection, schedule: Q01DX009 (ip), vehicle: suspension in saline) 98 % of control.
